From patent US20020048549A1, “Radioactive transition metal nitride heterocomplex” (priority 1996, published 2002)

Experiments:
serotonin receptor = assay: Regional brain biodistribution of 99mTcN-DESI (Group A vs Group B with unlabeled desipramine); format: in vivo, SD rats
Description: The rats were divided into two groups, group A and group B. Into each rat in group A was injected 20 μCi of the ^99mTcN-DESI. Into each rat in group B were injected 20 μCi of the ^99mTcN-DESI and 1.0 mg/kg of unlabeled desipramine at the same time.
SD rats weighing about 250 g were put under intraperitoneal anesthesia with a mixture of xylazine (18 mg/kg) and ketamine (15 mg/kg) and given an injection in the jugular vein. Then, the organs (brain, heart, lung, liver, spleen, kidney, muscle, adrenal, and submaxillary gland) were excised from the rats at different intervals of time, washed and then weighed. In addition, blood samples were collected and then weighed. The data on the biodistribution are expressed as the mean±significant difference of the percentage of radioactivity level per gram of the organ weight based on the dose of radioactivity, (% dose/g). The measurement was carried out using groups of 3 rats each.

[1] = Retention on Sep-Pak C18 reversed phase column (lipophilicity); format: physicochemical
From the text: Cation exchange resin: Sep-Pak CM (COONa), illpore, anion exchange resin: Sep-Pak QMA (CONH(CH2)3N(CH3)3^+Cl), Millpore, reversed phase column: Sep-Pak C18, Millpore. The complex was retained in an amount of about 95% in the cation exchange resin, about 60% in the anion exchange resin, or 99.5% in the reversed phase column.

[2] = Group A (complex alone), 30 min
[3] = Group A (complex alone), 60 min
[4] = Group B (with 1.0 mg/kg unlabeled desipramine), 5 min
[5] = Group B (with 1.0 mg/kg unlabeled desipramine), 30 min
[6] = Group B (with 1.0 mg/kg unlabeled desipramine), 60 min

With `COCCC[P+]1(CCCOC)CCN(CCOC)CC[P+](CCCOC)(CCCOC)[99Tc-2]12(#[N])[NH]C(C(=O)N(C)CCCN1c3ccccc3CCc3ccccc31)C[S]2` (centres unmarked) [^99mTcN-DESI] the Cerebellum % dose/g (serotonin receptor; Group A (complex alone), 5 min) was 0.064 ± 0.005 % dose/g, the Cortex % dose/g (serotonin receptor; Group A (complex alone), 5 min) was 0.029 ± 0.004 % dose/g and the Hypothalamus % dose/g (serotonin receptor; Group A (complex alone), 5 min) was 0.325 ± 0.058 % dose/g. For the same compound, the Medulla % dose/g (serotonin receptor; Group A (complex alone), 5 min) was 0.057 ± 0.004 % dose/g, the Striatum % dose/g (serotonin receptor; Group A (complex alone), 5 min) was 0.076 ± 0.025 % dose/g and the Cerebellum % dose/g (serotonin receptor; [2]) was 0.039 ± 0.015 % dose/g. It also gave a Cortex % dose/g (serotonin receptor; [2]) of 0.021 ± 0.002 % dose/g, a Hypothalamus % dose/g (serotonin receptor; [2]) of 0.408 ± 0.085 % dose/g and a Medulla % dose/g (serotonin receptor; [2]) of 0.046 ± 0.003 % dose/g. For the same compound, the Striatum % dose/g (serotonin receptor; [2]) was 0.054 ± 0.017 % dose/g, the Cerebellum % dose/g (serotonin receptor; [3]) was 0.028 ± 0.012 % dose/g and the Cortex % dose/g (serotonin receptor; [3]) was 0.021 ± 0.002 % dose/g. It also gave a Hypothalamus % dose/g (serotonin receptor; [3]) of 0.364 ± 0.069 % dose/g, a Medulla % dose/g (serotonin receptor; [3]) of 0.029 ± 0.006 % dose/g and a Striatum % dose/g (serotonin receptor; [3]) of 0.07 ± 0.019 % dose/g. The Cerebellum % dose/g (serotonin receptor; [4]) was 0.048 ± 0.008 % dose/g, the Cortex % dose/g (serotonin receptor; [4]) was 0.014 ± 0.004 % dose/g and the Hypottalamus % dose/g (serotonin receptor; [4]) was 0.125 ± 0.029 % dose/g. It also gave a Medulla % dose/g (serotonin receptor; [4]) of 0.038 ± 0.001 % dose/g, a Striatum % dose/g (serotonin receptor; [4]) of 0.053 ± 0.001 % dose/g and a Cerebellum % dose/g (serotonin receptor; [5]) of 0.035 ± 0.007 % dose/g. The Cortex % dose/g (serotonin receptor; [5]) was 0.009 ± 0.002 % dose/g, the Hypottalamus % dose/g (serotonin receptor; [5]) was 0.162 ± 0.106 % dose/g and the Medulla % dose/g (serotonin receptor; [5]) was 0.027 ± 0.013 % dose/g. For the same compound, the Striatum % dose/g (serotonin receptor; [5]) was 0.023 ± 0.003 % dose/g, the Cerebellum % dose/g (serotonin receptor; [6]) was 0.031 ± 0.011 % dose/g and the Cortex % dose/g (serotonin receptor; [6]) was 0.006 ± 0.000 % dose/g. It also gave a Hypottalamus % dose/g (serotonin receptor; [6]) of 0.152 ± 0.033 % dose/g, a Medulla % dose/g (serotonin receptor; [6]) of 0.016 ± 0.002 % dose/g and a Striatum % dose/g (serotonin receptor; [6]) of 0.035 ± 0.011 % dose/g. The accumulation in cortex (serotonin receptor; group A, no unlabeled desipramine) was “specifically accumulated”, the accumulation in cortex (serotonin receptor; group B, unlabeled desipramine administered) was “very small amount” and the “specificity for serotonin receptor” value (serotonin receptor; suggested from group A vs group B cortex accumulation) was “retained specificity for serotonin receptor”. For the same compound, the “amount retained in the reversed phase column” value [1] was 99.5% and the “lipophilicity suggested by retention in reversed phase column” value [1] was “high lipophilic”.
